pKd: −log10 of the molar value. Values after ≈ are worked out from the molar mass of the structure shown. Read-outs that look alike come from different tables or passages of the source.
Tests used:
exTrkB = target: T1, exTrkB (Homo sapiens, UniProt Q16620); experiment: MST binding affinity (Kd) determination
T1 construct: human TrkB receptor (exTrkB), residues 1−430, was cloned into the pCMV2 expression vector; made in house; host or cells: ExpiCHO-S cells
Description: The gene encoding the extracellular domain of the human TrkB receptor (exTrkB), residues 1−430, was cloned into the pCMV2 expression vector. Protein expression was performed in suspension-cultivated mammalian ExpiCHO-S cells using the ExpiFectamine (Thermo Scientific, Thermo Fisher Scientific, Waltham, MA, USA) transfection reagent. The secreted protein was purified using a four-step protocol. Clarified culture medium was precipitated with ammonium sulfate added to a final concentration of 1.5 M and centrifuged (235,000× g, 60 min at 4 °C). The supernatant after centrifugation was applied on a HiTrap Phenyl column (GE Healthcare, Chicago, IL, USA) equilibrated with buffer A (25 mM Tris, 1 mM DTT; pH 7.5) with 1.5 M ammonium sulfate. Bound proteins were eluted with a linear gradient of buffer A. The eluted proteins were dialyzed overnight in buffer A and loaded on a CaptoQ ImpRes column (GE Healthcare) equilibrated with buffer A with 50 mM NaCl. The bound proteins were eluted with a linear gradient of buffer A with 1 M NaCl. The fractions containing exTrkB protein were pooled, and MnCl2 and CaCl2 (1mM final concentration each) were added. The sample was purified on a HiTrap Con A 4B column (GE Healthcare) equilibrated with buffer B (25 mM Tris, 0.5 M NaCl, 1 mM MnCl2, 1 mM CaCl2; pH 7.5) and eluted with buffer C (25 mM Tris, 0.1 M NaCl, 0.4 M α-D-glucopyranoside; pH 6.5). To improve the protein recovery, buffer C flow was paused nine times during elution. The eluted fractions were concentrated and purified by size-exclusion chromatography on a HiLoad 16/600 Superdex 200 column (GE Healthcare) in buffer A with 0.5 M NaCl. The protein samples were concentrated to 1 mg/mL, and buffer was exchanged (PBS; pH 7.4). Samples were frozen in liquid nitrogen and stored at −80 °C. The protein purity was estimated by SDS–PAGE followed by Coomassie Brilliant Blue staining. The protein concentration was determined from the absorption at 280 nm using an UV NanoDrop 1000 spectrophotometer (Thermo Scientific).
The exTrkB was labeled with a Monolith Protein Labeling Kit RED-NHS 2nd Generation (NanoTemper Technologies GmbH, Munich, Germany) according to the manufacturer’s protocol. The labelling efficiency was always determined spectrophotometrically with NanoPhotometer® NP80 (Impel) in line with the manufacturer’s recommendations. Labelled exTrkB protein was aliquoted and stored at −80 °C to avoid repeated freeze–thaw cycles. Before analysis, the exTrkB protein was thawed on ice and diluted with MST buffer (50 mM Tris pH = 8; 150 mM NaCl; 10 mM MgCl2; 0.1% Tween20) to the desired concentration.
For primary screening (single-point MST experiments for signal amplitude determination), each of the 987 screened compounds were diluted in MST buffer + 0.1% Tween20 to a final concentration of 0.5 mM. The tested compounds were mixed with exTrkB solution (the final concentration of exTrkB was 20 nM) and centrifuged (10,000× g, 4 min at 4 °C) to eliminate protein and compound aggregates. Before loading to capillaries (Monolith NT.115 Capillaries, NanoTemper Technologies GmbH), the samples were incubated for 5 min at 25 °C and then placed into the MST apparatus (Monolith, NanoTemper Technologies GmbH). The experiments were performed using nano-blue excitation, LED light adjusted to 20% excitation power, and MST power set to medium, and the fluorescence signal during thermophoresis was detected after 30 s. Single-point MST experiments were performed by the determination of the amplitude signal between the unbound and bound state between the molecule and exTrkB, which was analyzed using the MO.Control Software version 1.6 (NanoTemper Technologies GmbH). A reference sample containing only exTrkB and the equivalent DMSO concentration (v/v) was included in each individual MST experiment. At least three technical replicates were prepared for each of the tested compounds. A binding affinity study was performed for 113 of the selected compounds at 16 concentration points. […]

TrkB receptor = target: T2, TrkB receptor (Rattus norvegicus, UniProt Q63604); experiment: ELFI TrkB phosphorylation, orthosteric agonist mode, SN56 T48 cell line; assay type: cell-based; conditions: 0.125–100 μM, 15 min
T2 construct: host or cells: SN56 T48 cell line
T2 sequence (Q63604 32-821): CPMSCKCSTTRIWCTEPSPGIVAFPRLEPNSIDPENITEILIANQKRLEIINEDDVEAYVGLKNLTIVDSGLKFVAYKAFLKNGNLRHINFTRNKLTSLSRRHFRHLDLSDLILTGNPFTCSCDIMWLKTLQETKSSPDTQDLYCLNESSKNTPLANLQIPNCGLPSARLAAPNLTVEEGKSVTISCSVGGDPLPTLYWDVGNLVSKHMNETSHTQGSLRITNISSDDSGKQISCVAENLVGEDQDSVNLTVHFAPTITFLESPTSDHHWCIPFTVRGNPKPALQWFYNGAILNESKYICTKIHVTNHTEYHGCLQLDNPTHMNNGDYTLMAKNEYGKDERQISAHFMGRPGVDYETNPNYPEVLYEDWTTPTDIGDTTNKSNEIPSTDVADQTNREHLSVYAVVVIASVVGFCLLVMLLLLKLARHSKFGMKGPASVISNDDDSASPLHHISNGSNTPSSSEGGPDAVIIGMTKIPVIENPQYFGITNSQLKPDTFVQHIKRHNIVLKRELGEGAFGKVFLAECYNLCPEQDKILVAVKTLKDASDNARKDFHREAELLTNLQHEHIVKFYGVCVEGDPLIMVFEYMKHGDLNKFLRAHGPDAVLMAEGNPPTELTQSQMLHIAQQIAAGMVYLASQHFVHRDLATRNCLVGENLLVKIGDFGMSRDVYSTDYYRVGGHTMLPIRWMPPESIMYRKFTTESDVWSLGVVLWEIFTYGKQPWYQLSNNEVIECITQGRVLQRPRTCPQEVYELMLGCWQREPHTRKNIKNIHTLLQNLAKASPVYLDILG
Description: The SN56 T48 cell line with stable overexpression of the TrkB receptor was purchased from Emory University (Atlanta, GA, USA) and cultivated according to the protocol described in Jang et al., 2010 [12]. The cell lines were cultivated with the following reagents: DMEM High Glucose, fetal bovine serum (FBS), Penicillin-Streptomycin Solution 100×, and Trypsin-EDTA 1×; all were purchased from Biowest, and G418 was from ThermoFisher Scientific. For the ELFI experiments, cells were seeded (8000/well) on a PDL-treated 96-well plate (BioCoat™, Corning Inc., Corning, NY, USA) and 6-well plate (400,000/well) for lysate collection and immunoblot analysis.
In the orthosteric agonist mode experiments, starved cells (5 h) were treated with compounds (0.125–100 μM; volume, 100 μL/well) or BDNF (0.01–10 nM; volume, 100 μL/well) dissolved in culture medium. In the allosteric modulation mode experiments, starved cells (5 h) were treated with final compound concentrations of 3, 10, and 30 μM; volume, 50 μL/well) in the presence of a rising concentration of BDNF (final concentration in well, 0.15–5 nM; volume, 50 μL/well). Corresponding treatment with DMSO (v/v) was performed for a control. Cells were treated for 15 min in both the orthosteric and allosteric modulation mode experiments.
The analysis of TrkB receptor activation was performed using the ELFI method adapted from Boltayev et al. (2017) with some modifications. After compound treatment, experiments were stopped by fixing cells with 10% buffered formalin (Kolchem, Lodz, Poland) for 20 min (volume, 100 μL/well). Afterwards, cells were permeabilized with washing buffer (TBS+ 0.1% Tween20) for 15 min, and endogenous peroxidases were quenched by 20 min of incubation with 1% H2O2 dissolved in TBS (each solution: volume, 100 μL/well). Epitopes were blocked with 10% BSA (Biowest) dissolved in washing buffer for 2 h (volume, 100 μL/well) and incubated with anti-pTrkB (Tyr707) primary antibody (Cell Signaling Technology, Danvers, MA, USA) diluted in washing buffer (1:500; overnight at 4 °C; volume, 100 μL/well). After repeated washing, cells were incubated with HRP-linked anti-rabbit antibody (Cell Signaling Technology) for 2 h (1:1000; RT; volume, 100 μL/well) and washed. The cells were then incubated with 100 μL of ImmunoCruz™ Western Blotting Luminol (Santa Cruz Biotechnology, Dallas, TX, USA) for 1 min in the dark, and the signals were measured using a microplate luminometer (VICTOR Light 1420-060, PerkinElmer®, Waltham, MA, USA). For non-specific binding, cells were treated, with the exception of primary antibody.

[1] = Chemical stability pH 7.4; assay type: physicochemical; conditions: pH = 7.4, 4 h
PAMPA = conditions: for PAMPA: 10 μM, 4 h
physchem = conditions: 25 °C, pH 7.4, aqueous buffer, kinetic from dmso stock
[2] = Caco-2 passive permeability; conditions: human, Caco-2, with 5 μM elacridar and 20 μM cyclosporine A
[3] = Metabolic stability in human liver microsomes; conditions: for Metabolic stability in HLM (classification): compared with verapamil; for Clint HLM: 1 μM, phase I
[4] = Metabolic stability in mouse liver microsomes; conditions: for Metabolic stability in MLM (classification): compared with verapamil; for Clint MLM: 1 μM, phase I
Caco-2 monolayer = experiment: Caco-2 passive permeability; conditions: for Papp,BA: Caco-2, basal to apical; for Papp,BA / Papp,AB: 2 h; for Papp,AB: Caco-2, apical to basal
[5] = Kinetic solubility (shake-flask); conditions: pH 7.4, 4 h, 25 °C
[6] = pH 7.4
[7] = target: extracellular domain of the human TrkB receptor (exTrkB), residues 1-430 (human) (UniProt Q16620)
Sequence of extracellular domain of the human TrkB receptor (exTrkB), residues 1-430 (human) (Q16620 32-430): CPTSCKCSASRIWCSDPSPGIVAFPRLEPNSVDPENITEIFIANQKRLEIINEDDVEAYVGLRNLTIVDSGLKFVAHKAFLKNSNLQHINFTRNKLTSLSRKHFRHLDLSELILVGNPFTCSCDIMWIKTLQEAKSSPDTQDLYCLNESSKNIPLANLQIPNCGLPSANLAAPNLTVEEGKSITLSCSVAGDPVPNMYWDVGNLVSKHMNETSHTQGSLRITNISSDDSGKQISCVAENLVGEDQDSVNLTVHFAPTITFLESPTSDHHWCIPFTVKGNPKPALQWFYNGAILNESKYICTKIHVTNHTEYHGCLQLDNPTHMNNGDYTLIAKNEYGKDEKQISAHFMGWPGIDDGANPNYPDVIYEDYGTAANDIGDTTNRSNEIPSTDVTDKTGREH

[8] = target: extracellular domain of the human TrkB receptor (exTrkB), residues 1-430 (human) (UniProt Q16620); experiment: MST; exTrkB labelled with RED-NHS, 20 nM; ligand titrated at 16 concentration points; MST buffer (50 mM Tris pH 8, 150 mM NaCl, 10 mM MgCl2, 0.1% Tween20); 5 min at 25 °C before loading; Kd binding model

T1 sequence (Q16620 32-430): as above

Molecule	Binding to the exTrkB receptor (exTrkB)	Orthosteric activity (induction of TrkB phosphorylation) (TrkB receptor)	Chemical Stability [% of Degradation] [1]	Metabolic stability in HLM (classification) [3]	Metabolic stability in MLM (classification) [4]	PAMPA (PAMPA)	Papp,BA (Caco-2 monolayer)	Kinetic Solubility [5]	Clint HLM [3]	Papp,AB (Caco-2 monolayer)	Clint MLM [4]	also measured
O=c1cc(-c2cccc(O)c2)oc2c(O)c(O)ccc12 [7,8,3′-THF, 7,8,3′-trihydroxyflavone]	not observed	did not observe any orthosteric activity	Stable	moderate degradation rate	moderate degradation rate							Papp at 4 h, 10 μM (PAMPA; PAMPA, pH 7.4): 1.1 ×10⁻⁶ cm/s; solubility kinetic at 4 h (physchem): 168 µM (≈ 45.4 µg/mL); Papp A→B at 2 h [2]: 3 ×10⁻⁶ cm/s; Papp B→A at 2 h [2]: 11.1 ×10⁻⁶ cm/s; microsomal CLint at 1 μM ([3]; human, liver microsomes): 49.4 µL/min/mg; microsomal CLint at 1 μM ([4]; mouse, liver microsomes): 26.6 µL/min/mg
Brain-derived neurotrophic factor (ligand)												EC50 of TrkB phosphorylation (Y706) by enzyme-linked fixed-cell immunoassay (ELFI) in SN56 T48 cells overexpressing TrkB; BDNF 0.01-10 nM, 15 min [7]: 4 nM; pKd [8]: 7.03

Second part, led by results:

Binding to the exTrkB receptor (exTrkB)	Orthosteric activity (induction of TrkB phosphorylation) (TrkB receptor)	Chemical Stability [% of Degradation] [1]	Metabolic stability in HLM (classification) [3]	Metabolic stability in MLM (classification) [4]	PAMPA (PAMPA)	Papp,BA (Caco-2 monolayer)	Kinetic Solubility [5]	Clint HLM [3]	Papp,AB (Caco-2 monolayer)	Clint MLM [4]	Molecule	also measured
not observed	did not observe any orthosteric activity	Stable	very good metabolic stability	very good metabolic stability	0.01 10^−6·cm/s	0.12 10^−6·cm/s	397 µM	3.7 μL·min^−1·mgprotein^−1			O=C(NCCO)c1cc(C(=O)NCCO)cc(C(=O)NCCO)c1 [LM22-A4]	
not observed	did not observe any orthosteric activity	Stable	very good metabolic stability	very good metabolic stability	<0.01 10^−6·cm/s	8.00 10^−6·cm/s	404 µM	0.3 μL·min^−1·mgprotein^−1	8.86 10^−6·cm/s	1.5 μL·min^−1·mgprotein^−1	CC(=O)NCCc1c[nH]c2ccc(O)cc12 [NAS, N-acetylserotonin]	
not observed	did not observe any orthosteric activity	0.65%	highly unstable	highly unstable	8.91 10^−6·cm/s	13.22 10^−6·cm/s		466.6 μL·min^−1·mgprotein^−1	28.23 10^−6·cm/s	1316.7 μL·min^−1·mgprotein^−1	CC(C)CCNc1ncccc1C(=O)N1CCN(Cc2ccccc2)CC1 [NSI-189]	Kinetic Solubility [6]: 500 µM; Permeability in PAMPA assay (good permeability) (PAMPA): > 10^−6 cm/s; Permeability in Caco-2 system (good permeability) (Caco-2 monolayer): > 10^−6 cm/s
